# According to ChEMBL document CHEMBL4043287, “A Structure-Activity Relationship Study of Bitopic N6-Substituted Adenosine Derivatives as Biased Adenosine A1 Receptor Agonists” (J Med Chem, 2018):
# Molecular target: T1, Adenosine receptor A1 (Homo sapiens, UniProt P30542)
# T1 sequence (P30542 whole entry): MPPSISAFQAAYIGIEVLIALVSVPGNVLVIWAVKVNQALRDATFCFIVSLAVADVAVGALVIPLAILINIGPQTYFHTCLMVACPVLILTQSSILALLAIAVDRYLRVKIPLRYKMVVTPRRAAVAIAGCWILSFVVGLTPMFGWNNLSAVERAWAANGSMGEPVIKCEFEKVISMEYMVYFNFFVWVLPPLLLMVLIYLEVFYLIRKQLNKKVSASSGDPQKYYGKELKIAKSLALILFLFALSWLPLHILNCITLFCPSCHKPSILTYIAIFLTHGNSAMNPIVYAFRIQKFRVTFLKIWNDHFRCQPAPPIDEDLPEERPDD
# Experiment: Agonist activity at human A1AR expressed in FlpIn-CHO cells assessed as intracellular calcium mobilization by measuring agonist transduction coefficient by Fluo-4 dye-based fluorescence assay
# Type: cell-based
row,log(activity),Compound
1,7.38,O=C(NCCCCCCNc1ncnc2c1ncn2[C@@H]1O[C@H](CO)[C@@H](O)[C@H]1O)c1cccc(-c2cccs2)c1
2,7.43,Nc1sc(-c2ccc(C(=O)NCCCCCCNc3ncnc4c3ncn4[C@@H]3O[C@H](CO)[C@@H](O)[C@H]3O)cc2)cc1C(=O)c1ccccc1
3,5.74,Nc1sc(-c2ccccc2C(=O)NCCCCCCNc2ncnc3c2ncn3[C@@H]2O[C@H](CO)[C@@H](O)[C@H]2O)c(-c2cccc(C(F)(F)F)c2)c1C(=O)c1ccccc1
4,5.74,O=C(NCCCCCCNc1ncnc2c1ncn2[C@@H]1O[C@H](CO)[C@@H](O)[C@H]1O)c1ccc(-c2scc(C(=O)c3ccccc3)c2-c2cccc(C(F)(F)F)c2)cc1

# Molecular target: T1, Adenosine receptor A1
# Experiment: Agonist activity at human A1AR expressed in FlpIn-CHO cells assessed as intracellular calcium mobilization by Fluo-4 dye-based fluorescence assay relative to control
# Type: cell-based
row,Emax [%],Compound
1,49,O=C(NCCCCCCNc1ncnc2c1ncn2[C@@H]1O[C@H](CO)[C@@H](O)[C@H]1O)c1cccc(-c2cccs2)c1
2,49,Nc1sc(-c2ccc(C(=O)NCCCCCCNc3ncnc4c3ncn4[C@@H]3O[C@H](CO)[C@@H](O)[C@H]3O)cc2)cc1C(=O)c1ccccc1
3,43,Nc1sc(-c2ccccc2C(=O)NCCCCCCNc2ncnc3c2ncn3[C@@H]2O[C@H](CO)[C@@H](O)[C@H]2O)c(-c2cccc(C(F)(F)F)c2)c1C(=O)c1ccccc1
4,40,O=C(NCCCCCCNc1ncnc2c1ncn2[C@@H]1O[C@H](CO)[C@@H](O)[C@H]1O)c1ccc(-c2scc(C(=O)c3ccccc3)c2-c2cccc(C(F)(F)F)c2)cc1

# Molecular target: T2, Adenosine receptor A3 (Homo sapiens) (UniProt P0DMS8)
# T2 sequence (whole entry): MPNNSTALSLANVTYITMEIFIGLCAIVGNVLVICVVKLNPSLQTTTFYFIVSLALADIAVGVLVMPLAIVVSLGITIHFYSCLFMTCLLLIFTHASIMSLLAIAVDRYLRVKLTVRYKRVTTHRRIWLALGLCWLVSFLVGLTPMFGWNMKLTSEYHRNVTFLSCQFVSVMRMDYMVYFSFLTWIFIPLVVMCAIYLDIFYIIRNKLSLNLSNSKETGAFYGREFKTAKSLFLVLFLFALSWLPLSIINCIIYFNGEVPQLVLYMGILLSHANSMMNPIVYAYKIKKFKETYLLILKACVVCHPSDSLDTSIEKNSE
# Experiment: Agonist activity at human A3AR expressed in FlpIn-CHO cells assessed as inhibition of forskolin-stimulated cAMP accumulation preincubated for 10 mins followed by forskolin addition measured after 30 mins by Alphascreen assay relative to control
# Type: functional, cell-based
row,Emax [%],Compound
1,107,O=C(NCCCCCCNc1ncnc2c1ncn2[C@@H]1O[C@H](CO)[C@@H](O)[C@H]1O)c1cccc(-c2cccs2)c1
2,85,Nc1sc(-c2ccc(C(=O)NCCCCCCNc3ncnc4c3ncn4[C@@H]3O[C@H](CO)[C@@H](O)[C@H]3O)cc2)cc1C(=O)c1ccccc1
3,103,Nc1sc(-c2ccccc2C(=O)NCCCCCCNc2ncnc3c2ncn3[C@@H]2O[C@H](CO)[C@@H](O)[C@H]2O)c(-c2cccc(C(F)(F)F)c2)c1C(=O)c1ccccc1

# Molecular target: Adenosine receptor A2a (Homo sapiens, UniProt P29274)
# Sequence (P29274 whole entry): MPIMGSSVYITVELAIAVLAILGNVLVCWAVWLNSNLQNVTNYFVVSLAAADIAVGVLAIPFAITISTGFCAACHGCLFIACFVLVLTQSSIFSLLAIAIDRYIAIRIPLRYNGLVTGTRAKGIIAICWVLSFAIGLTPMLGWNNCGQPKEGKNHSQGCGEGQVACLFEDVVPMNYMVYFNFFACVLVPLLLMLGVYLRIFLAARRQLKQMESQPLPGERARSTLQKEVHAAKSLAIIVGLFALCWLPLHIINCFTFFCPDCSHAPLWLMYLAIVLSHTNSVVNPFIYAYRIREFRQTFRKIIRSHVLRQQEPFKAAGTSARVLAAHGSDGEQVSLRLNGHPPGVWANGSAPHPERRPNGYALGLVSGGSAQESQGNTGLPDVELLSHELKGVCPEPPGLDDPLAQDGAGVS
# Experiment: Agonist activity at human A2A-AR expressed in FlpIn-CHO cells assessed as inhibition of forskolin-stimulated cAMP accumulation preincubated for 40 mins followed by forskolin addition measured after 30 mins by Alphascreen assay
row,EC50 [nM],Compound
1,1320,O=C(NCCCCCCNc1ncnc2c1ncn2[C@@H]1O[C@H](CO)[C@@H](O)[C@H]1O)c1cccc(-c2cccs2)c1
2,355,Nc1sc(-c2ccc(C(=O)NCCCCCCNc3ncnc4c3ncn4[C@@H]3O[C@H](CO)[C@@H](O)[C@H]3O)cc2)cc1C(=O)c1ccccc1
3,2880,O=C(NCCCCCCNc1ncnc2c1ncn2[C@@H]1O[C@H](CO)[C@@H](O)[C@H]1O)c1ccc(-c2scc(C(=O)c3ccccc3)c2-c2cccc(C(F)(F)F)c2)cc1

# Molecular target: T3, Adenosine receptor A2b (Homo sapiens, UniProt P29275)
# T3 sequence (P29275 whole entry): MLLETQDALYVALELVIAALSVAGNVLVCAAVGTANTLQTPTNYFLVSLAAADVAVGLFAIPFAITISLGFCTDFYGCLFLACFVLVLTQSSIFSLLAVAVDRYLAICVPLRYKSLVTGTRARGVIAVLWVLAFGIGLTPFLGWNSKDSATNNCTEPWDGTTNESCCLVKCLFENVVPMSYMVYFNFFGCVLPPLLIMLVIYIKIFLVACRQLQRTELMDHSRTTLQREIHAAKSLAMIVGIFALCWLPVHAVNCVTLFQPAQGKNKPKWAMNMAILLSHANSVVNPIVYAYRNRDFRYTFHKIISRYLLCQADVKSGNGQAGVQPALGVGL
# Experiment: Agonist activity at human A2BAR expressed in FlpIn-CHO cells assessed as […] cAMP accumulation preincubated for 40 mins followed by forskolin addition measured after 30 mins by Alphascreen assay
# Type: functional, cell-based
row,EC50 [nM],Compound
1,17.8,O=C(NCCCCCCNc1ncnc2c1ncn2[C@@H]1O[C@H](CO)[C@@H](O)[C@H]1O)c1cccc(-c2cccs2)c1
2,224,Nc1sc(-c2ccc(C(=O)NCCCCCCNc3ncnc4c3ncn4[C@@H]3O[C@H](CO)[C@@H](O)[C@H]3O)cc2)cc1C(=O)c1ccccc1
3,288,Nc1sc(-c2ccccc2C(=O)NCCCCCCNc2ncnc3c2ncn3[C@@H]2O[C@H](CO)[C@@H](O)[C@H]2O)c(-c2cccc(C(F)(F)F)c2)c1C(=O)c1ccccc1
4,148,O=C(NCCCCCCNc1ncnc2c1ncn2[C@@H]1O[C@H](CO)[C@@H](O)[C@H]1O)c1ccc(-c2scc(C(=O)c3ccccc3)c2-c2cccc(C(F)(F)F)c2)cc1

# Molecular target: T4, Adenosine receptor A2b (Homo sapiens) (UniProt P29275)
# T4 sequence (whole entry): T3 sequence (P29275 whole entry)
# Experiment: Agonist activity at human A2BAR expressed in FlpIn-CHO cells assessed as […] cAMP accumulation preincubated for 40 mins followed by forskolin addition measured after 30 mins by Alphascreen assay relative to control
# Type: functional, cell-based
row,Emax [%],Compound
1,42,O=C(NCCCCCCNc1ncnc2c1ncn2[C@@H]1O[C@H](CO)[C@@H](O)[C@H]1O)c1cccc(-c2cccs2)c1
2,40,Nc1sc(-c2ccc(C(=O)NCCCCCCNc3ncnc4c3ncn4[C@@H]3O[C@H](CO)[C@@H](O)[C@H]3O)cc2)cc1C(=O)c1ccccc1
3,46,Nc1sc(-c2ccccc2C(=O)NCCCCCCNc2ncnc3c2ncn3[C@@H]2O[C@H](CO)[C@@H](O)[C@H]2O)c(-c2cccc(C(F)(F)F)c2)c1C(=O)c1ccccc1
4,49,O=C(NCCCCCCNc1ncnc2c1ncn2[C@@H]1O[C@H](CO)[C@@H](O)[C@H]1O)c1ccc(-c2scc(C(=O)c3ccccc3)c2-c2cccc(C(F)(F)F)c2)cc1

# Molecular target: T5, Adenosine receptor A3 (Homo sapiens, UniProt P0DMS8)
# T5 sequence (P0DMS8 whole entry): T2 sequence (whole entry)
# Experiment: Agonist activity at human A3AR expressed in FlpIn-CHO cells assessed as inhibition of forskolin-stimulated cAMP accumulation preincubated for 10 mins followed by forskolin addition measured after 30 mins by Alphascreen assay
row,EC50 [nM],Compound
1,832,O=C(NCCCCCCNc1ncnc2c1ncn2[C@@H]1O[C@H](CO)[C@@H](O)[C@H]1O)c1cccc(-c2cccs2)c1
2,447,Nc1sc(-c2ccc(C(=O)NCCCCCCNc3ncnc4c3ncn4[C@@H]3O[C@H](CO)[C@@H](O)[C@H]3O)cc2)cc1C(=O)c1ccccc1
3,282,Nc1sc(-c2ccccc2C(=O)NCCCCCCNc2ncnc3c2ncn3[C@@H]2O[C@H](CO)[C@@H](O)[C@H]2O)c(-c2cccc(C(F)(F)F)c2)c1C(=O)c1ccccc1
4,> 1000,O=C(NCCCCCCNc1ncnc2c1ncn2[C@@H]1O[C@H](CO)[C@@H](O)[C@H]1O)c1ccc(-c2scc(C(=O)c3ccccc3)c2-c2cccc(C(F)(F)F)c2)cc1

# Molecular target: T1, Adenosine receptor A1
# Experiment: Agonist activity at human A1AR expressed in FlpIn-CHO cells assessed as inhibition of forskolin-stimulated cAMP accumulation preincubated for 10 mins followed by forskolin addition measured after 30 mins by Alphascreen assay
# Type: functional, cell-based
row,EC50 [nM],Compound
1,234,O=C(NCCCCCCNc1ncnc2c1ncn2[C@@H]1O[C@H](CO)[C@@H](O)[C@H]1O)c1cccc(-c2cccs2)c1
2,41.7,Nc1sc(-c2ccc(C(=O)NCCCCCCNc3ncnc4c3ncn4[C@@H]3O[C@H](CO)[C@@H](O)[C@H]3O)cc2)cc1C(=O)c1ccccc1
3,1290,Nc1sc(-c2ccccc2C(=O)NCCCCCCNc2ncnc3c2ncn3[C@@H]2O[C@H](CO)[C@@H](O)[C@H]2O)c(-c2cccc(C(F)(F)F)c2)c1C(=O)c1ccccc1
4,110,O=C(NCCCCCCNc1ncnc2c1ncn2[C@@H]1O[C@H](CO)[C@@H](O)[C@H]1O)c1ccc(-c2scc(C(=O)c3ccccc3)c2-c2cccc(C(F)(F)F)c2)cc1

# Molecular target: T1, Adenosine receptor A1
# Experiment: Agonist activity at human A1AR expressed in FlpIn-CHO cells assessed as intracellular calcium mobilization by Fluo-4 dye-based fluorescence assay
# Type: cell-based
row,EC50 [nM],Compound
1,35.5,O=C(NCCCCCCNc1ncnc2c1ncn2[C@@H]1O[C@H](CO)[C@@H](O)[C@H]1O)c1cccc(-c2cccs2)c1
2,29.5,Nc1sc(-c2ccc(C(=O)NCCCCCCNc3ncnc4c3ncn4[C@@H]3O[C@H](CO)[C@@H](O)[C@H]3O)cc2)cc1C(=O)c1ccccc1
3,1350,Nc1sc(-c2ccccc2C(=O)NCCCCCCNc2ncnc3c2ncn3[C@@H]2O[C@H](CO)[C@@H](O)[C@H]2O)c(-c2cccc(C(F)(F)F)c2)c1C(=O)c1ccccc1
4,562,O=C(NCCCCCCNc1ncnc2c1ncn2[C@@H]1O[C@H](CO)[C@@H](O)[C@H]1O)c1ccc(-c2scc(C(=O)c3ccccc3)c2-c2cccc(C(F)(F)F)c2)cc1
